pIC50: −log10 of the molar value. Where “and” joins values, the source holds several entries; their conditions need not be identical. Identical values can stand only once.
How the values were obtained:
PC-3 cells [1] = assay: Annexin V-FITC apoptosis assay; format: cell-based, human; conditions: PC-3, 2.34 µM, 24 h
Method: PC-3 cells were placed in a 6-well plate at 1 × 10^5 conc. of cells per well, then incubated for 24 h. Afterward, the cells were treated with 2.34 µM of compound 5c or (0.1% DMSO) for 24 h, then harvested, washed with PBS, and stained with annexin V-FITC and PI in binding buffer ([…], […], and […] at pH 7.4) for 15 min at room temperature in the dark, then analysed by the flow cytometer.

WI-38 human cell line = assay: In vitro cytotoxicity on WI-38 human cell line (MTT); format: cell-based; conditions: WI-38 normal human cell line
Method: Cell Line cells were obtained from American Type Culture Collection and were cultured using DMEM (Invitrogen/Life Technologies) supplemented with 10% FBS (Hyclone), 10 µg/ml of insulin (Sigma), and 1% penicillin-streptomycin. All of the other chemicals and reagents were obtained from Sigma or Invitrogen. Plate cells were incubated (cells density 1.2–1.8 × 10,000 cells/well) in a volume of 100 µL complete growth medium and 100 ul of the tested compound per well in a 96-well plate for 24 h before the MTT assay. The cultures were removed from the incubator into a laminar flow hood or other sterile work area followed by the addition of reconstituted MTT in an amount equal to 10% of the culture medium volume, then incubated for an additional 2 h. After the incubation period, cultures were removed from the incubator, and the resulted formazan crystals were dissolved by adding an amount of MTT solubilisation solution [M-8910] equal to the original culture medium volume, then the absorbance at a wavelength of 570 nm was measured. Finally, the IC50 of the tested compound compared to the reference was calculated using GraphPad Prism software.

HS 578 T = assay: NCI-60 SRB screen; format: cell-based, human; conditions: five dose;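 for pIC50: half-maximal inhibitory concentration read as cell viability unlike GI50 net growth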
PC-3 cells [2] = assay: Cell cycle analysis (propidium iodide, flow cytometer); format: cell-based, human; conditions: PC-3, 2.34 µM, 24 h
Method: The prostate PC-3 cells were placed in a six-well plate at 1 × 10^5 conc. of cells/well, then incubated for 24 h. The cells were treated with 2.34 µM of compound 5c or (0.1% DMSO) for 24 h. Thereafter, cells were collected and fixed for 12 h using ice-cold 70% ethanol at 4 °C. Then, ethanol was removed, and the cells were washed with cold Phosphate Buffer Saline (PBS) and incubated for 30 min at 37 °C in 0.5 ml of PBS. The cells were stained for 30 min with propidium iodide in the dark. The flow cytometer was used to detect DNA contents.

CYP17 enzyme = CYP17 enzyme ELISA in mice prostate cancer model; format: in vivo; conditions: 5 mg/kg i.p., 5 days a week, ELISA of tissue (Mice testis)
Method: A total of 16 mice from the TRAMP/FVB background ([…], male, average 45 days, average weight […], mice with prostate cancer) were taken and divided into 2 groups with 8 animals in each group. One group of mice was given a drug in 0.2 ml of DMSO and phosphate-buffered saline (1:10) ratio (5 mg/kg body weight, i.p., 5 days a week). The control group animals were treated with 0.2 ml of DMSO and phosphate-buffered saline (1:10) ratio. A total of eight mice, four animals from each group, were examined at 13 weeks of age, and the remaining animals from each group were examined at 20 weeks for prostate tumour development. Treatment was stopped 24 h before killing the animals.
BioSource 2704060 96 assay kit is a sandwich enzyme immunoassay for in vitro quantitative measurement of CYP17 enzyme activity in mouse tissue homogenates, cell lysates, cell culture supernatant, and other biological fluids. Tested tissues were rinsed in ice-cold PBS to remove excess blood and weighed before homogenisation. The tissues were minced and homogenised in fresh lysis buffer with a glass homogeniser. (catalog: IS007, different lysis buffer needs to be chosen based on subcellular location of the target protein) (w:v = 1:20–1:50, e.g. 1 ml lysis buffer is added in 20–50 mg tissue sample) The resulting suspension was sonicated with an ultrasonic cell disrupter till the solution was clarified. The homogenates were centrifuged for 5 min at 10,000 × g, and the supernatant was collected. An Aliquot was assayed and stored at ≤ −20 °C.
The assay sample and standard were incubated together with CYP-HRP conjugate in an appropriate number of microplates pre-coated with an antibody specific for the CYP17 enzyme for 1 h. After the incubation period, the wells were decanted and washed five times. The wells were then incubated with a substrate for the HRP enzyme. […] Colour intensity was measured spectrophotometrically at 450 nm in a microplate reader. […]
Assay procedures: Wells for a standard, blank, and sample were prepared. […] The absorbance was measured immediately at 450 nm.

N#CC1C(=O)NC(c2ccccc2[N+](=O)[O-])c2sc3c(F)cccc3c21 (centres unmarked) [Compound 5c, 4-Cyano-8-fluoro-1-(2-nitrophenyl)-1,2-dihydro[1]benzothieno[2,3-c] pyridin-3(4H)-one]
Apoptosis total (% of cells) (PC-3 cells [1]): 42.55% | Early apoptosis (% of cells) (PC-3 cells [1]): 1.66% | Late apoptosis (% of cells) (PC-3 cells [1]): 26.67% | Necrosis (% of cells) (PC-3 cells [1]): 14.22% | elevation in necrosis vs control (PC-3 cells [1]): 7.68 fold | increase in early apoptotic cells vs control (PC-3 cells [1]): 6.64 fold | increase in late apoptotic cells vs control (PC-3 cells [1]): 140.36 fold | total increase vs control (PC-3 cells [1]): 18.58 fold | pIC50 (WI-38 human cell line): 4.47 | GI50 (HS 578 T; Homo sapiens): 18.1 µM | pIC50 (HS 578 T; Homo sapiens): < 4.00 | TGI (HS 578 T): 100 µM | DNA content (%) G0-G1 (PC-3 cells [2]): 49.61% | DNA content (%) G2/M (PC-3 cells [2]): 6.21% | DNA content (%) Pre-G1 (PC-3 cells [2]): 42.55% | DNA content (%) S (PC-3 cells [2]): 44.18% | CYP17 enzyme aver. conc. (CYP17 enzyme): 15.8 nM and 15.80 nM and 15.80 ± 0.20 nM

— PMC8330742, “New benzothieno[2,3-c]pyridines as non-steroidal CYP17 inhibitors: design, synthesis, anticancer screening, apoptosis induction, and in silico ADME profile studies” (Journal of Enzyme Inhibition and Medicinal Chemistry, 2021)
